Test system: Metabolism protein genes
Assay: DNA chip mRNA expression in yeast, metabolism protein genes (Table 7)
Format: cell-based, Saccharomyces cerevisiae S288C
Experimental: Yeast (Saccharomyces cerevisiae S288C (α SUC2mal mel gap2 CUP1)) were incubated at 25° C. on YPD medium (yeast extract 1%, polypepton 2%, glucose 2%). One of toxic chemical substances was added to the cells at logarithmic growth phase, and the cells were further incubated for two hours. Cells were cultured without any chemical substance in the same condition, and were used as control. Concentrations of the chemical substances were defined to inhibit the growth of the yeast but not lead to death.
After completion of the incubation, the culture was centrifuged to collect the cells. To the cells, sodium acetate buffer (50 mM sodium acetate, 10 mM EDTA, 1% SDS) was added, and the mixture was shaken at 65° C. for five minutes, followed by returning to room temperature, and obtaining the supernatant, of which the procedures were repeated two times. To the supernatant, ½ amount of a solution of phenol/chloroform was added, and the mixture was centrifuged to give a supernatant, which was added with an equal amount of chloroform, and the mixture was centrifuged to give a supernatant. To the supernatant, an equal amount of isopropanol containing 0.3 M sodium acetate was added, and the mixture was allowed to stand at room temperature for 30 minutes, after which the mixture was centrifuged to give a sediment of the whole RNAs. Seventy % ethanol was added to the sediment, and the mixture was again centrifuged to give a sediment, which was then dried and dissolved in water. mRNA was isolated from the whole RNAs as followings. In view of the fact that a poly A chain is attached to the 3′ terminus of mRNA, a polynucleotide having a poly T structure which was immobilized on the surface of latex beads was used to trap the mRNA, and then the mRNA was washed and eluted with spine column (Oligotex-dT30<Super>mRNA Purification Kit, Takara). Reverse transcription of the mRNA was conducted with a reverse transcriptase (Super Script II Reverse Transcriptase; catalogue No. 18064-014, GibcoBRL) using fluorescence-labeled nucleotides to give cDNAs that were introduced with Cy3-dUTP or Cy5-dUTP during the reverse transcription.
The labeled cDNAs were dissolved in TE buffer (10mM Tris-HCl/1 mM EDTA, pH8.0), and the solution was dropped on the DNA chip containing the whole genes of yeast (DNA Chip Research Inc. Japan) so that the cDNAs were hybridized on the DNA chip at 65° C. for over 12 hours. The fluoresces intensity of the DNA chip was read with a scanner, and the ratio relative to the fluorescence intensity resulting from the absence of chemical substance was estimated as the following, which is shown in Tables 1 to 9: […]

SMILES: C[S+](C)[O-] [(15), dimethylsulfoxide]
- The level of expressed mRNA in the presence of chemical substance/The level of expressed mRNA in the absence of chemical substance (yeast gene YAL012W): 3.1
- The level of expressed mRNA in the presence of chemical substance/The level of expressed mRNA in the absence of chemical substance (yeast gene YAL038W): 3.1
- The level of expressed mRNA in the presence of chemical substance/The level of expressed mRNA in the absence of chemical substance (yeast gene YAL044C): 0.7
- The level of expressed mRNA in the presence of chemical substance/The level of expressed mRNA in the absence of chemical substance (yeast gene YAL054C): 0.9
- The level of expressed mRNA in the presence of chemical substance/The level of expressed mRNA in the absence of chemical substance (yeast gene YAR071W): 1.1
- The level of expressed mRNA in the presence of chemical substance/The level of expressed mRNA in the absence of chemical substance (yeast gene YBL001C): 1.0
- level of expressed mRNA in the presence/in the absence of chemical substance (yeast gene YBR003W): 0.7
- level of expressed mRNA in the presence/in the absence of chemical substance (yeast gene YBR011C): 2.1
- The level of expressed mRNA in the presence of chemical substance/The level of expressed mRNA in the absence of chemical substance (yeast gene YBR014C): 1.2
- level of expressed mRNA in the presence/in the absence of chemical substance (yeast gene YBR020W): 1.3
- The level of expressed mRNA in the presence of chemical substance/The level of expressed mRNA in the absence of chemical substance (yeast gene YBR023C): 2.8
- The level of expressed mRNA in the presence of chemical substance/The level of expressed mRNA in the absence of chemical substance (yeast gene YBR029C): 3.5
- The level of expressed mRNA in the presence of chemical substance/The level of expressed mRNA in the absence of chemical substance (yeast gene YBR035C): 0.7
- The level of expressed mRNA in the presence of chemical substance/The level of expressed mRNA in the absence of chemical substance (yeast gene YBR068C): 1.6
- The level of expressed mRNA in the presence of chemical substance/The level of expressed mRNA in the absence of chemical substance (yeast gene YBR111C): 0.7
- The level of expressed mRNA in the presence of chemical substance/The level of expressed mRNA in the absence of chemical substance (yeast gene YBR183W): 1.1
- The level of expressed mRNA in the presence of chemical substance/The level of expressed mRNA in the absence of chemical substance (yeast gene YBR256C): 1.6
- The level of expressed mRNA in the presence of chemical substance/The level of expressed mRNA in the absence of chemical substance (yeast gene YCL009C): 6.5
- level of expressed mRNA in the presence/in the absence of chemical substance (yeast gene YCR010C): 1.2
- level of expressed mRNA in the presence/in the absence of chemical substance (yeast gene YCR034W): 0.9
- The level of expressed mRNA in the presence of chemical substance/The level of expressed mRNA in the absence of chemical substance (yeast gene YCR037C): 1.0
- The level of expressed mRNA in the presence of chemical substance/The level of expressed mRNA in the absence of chemical substance (yeast gene YCR048W): 3.1
- The level of expressed mRNA in the presence of chemical substance/The level of expressed mRNA in the absence of chemical substance (yeast gene YCR098C): 11.0
- The level of expressed mRNA in the presence of chemical substance/The level of expressed mRNA in the absence of chemical substance (yeast gene YDL021W): 0.7
- The level of expressed mRNA in the presence of chemical substance/The level of expressed mRNA in the absence of chemical substance (yeast gene YDL022W): 0.9
- level of expressed mRNA in the presence/in the absence of chemical substance (yeast gene YDR050C): 1.9
- level of expressed mRNA in the presence/in the absence of chemical substance (yeast gene YDR073W): 0.8
- level of expressed mRNA in the presence/in the absence of chemical substance (yeast gene YDR123C): 1.2
- level of expressed mRNA in the presence/in the absence of chemical substance (yeast gene YDR178W): 0.7
- level of expressed mRNA in the presence/in the absence of chemical substance (yeast gene YDR277C): 0.4
- level of expressed mRNA in the presence/in the absence of chemical substance (yeast gene YDR284C): 0.9
- level of expressed mRNA in the presence/in the absence of chemical substance (yeast gene YDR345C): 0.8
- The level of expressed mRNA in the presence of chemical substance/The level of expressed mRNA in the absence of chemical substance (yeast gene YDR380W): 2.4
- level of expressed mRNA in the presence/in the absence of chemical substance (yeast gene YDR400W): 0.8
- level of expressed mRNA in the presence/in the absence of chemical substance (yeast gene YDR408C): 1.0
- The level of expressed mRNA in the presence of chemical substance/The level of expressed mRNA in the absence of chemical substance (yeast gene YDR410C): 1.2
- level of expressed mRNA in the presence/in the absence of chemical substance (yeast gene YDR483W): 1.5
- The level of expressed mRNA in the presence of chemical substance/The level of expressed mRNA in the absence of chemical substance (yeast gene YDR487C): 1.0
- The level of expressed mRNA in the presence of chemical substance/The level of expressed mRNA in the absence of chemical substance (yeast gene YDR502C): 8.2
- The level of expressed mRNA in the presence of chemical substance/The level of expressed mRNA in the absence of chemical substance (yeast gene YDR516C): 0.4
- The level of expressed mRNA in the presence of chemical substance/The level of expressed mRNA in the absence of chemical substance (yeast gene YEL011W): 0.4
- level of expressed mRNA in the presence/in the absence of chemical substance (yeast gene YEL063C): 1.3
- level of expressed mRNA in the presence/in the absence of chemical substance (yeast gene YER015W): 0.8
- The level of expressed mRNA in the presence of chemical substance/The level of expressed mRNA in the absence of chemical substance (yeast gene YER026C): 4.0
- The level of expressed mRNA in the presence of chemical substance/The level of expressed mRNA in the absence of chemical substance (yeast gene YER053C): 1.1

Reference: patent US8192962B2, “Processes for detecting toxic substances” (Daikin Industries, Ltd., priority 2001, dated 2012)
